Source: ChEMBL document CHEMBL3132815, “Design, synthesis and activities of 4/5-acyl-2-aminoimidazolyl analogues of oroidin for biofilm inhibition” (Medchemcomm, 2013)
Converted amounts (≈) assume the structure as drawn.

What was measured:
[1] = test system: Staphylococcus epidermidis; experiment: Antibiofilm activity against Staphylococcus epidermidis 1457 assessed as inhibition of biofilm formation at 50 ug/ml; format: functional
Staphylococcus aureus [2] = experiment: Antibiofilm activity against Staphylococcus aureus ATCC 35556 assessed as inhibition of biofilm formation at 50 ug/ml; format: functional
Pseudomonas aeruginosa [3] = experiment: Antibiofilm activity against Pseudomonas aeruginosa PAO1 assessed as inhibition of biofilm formation at 50 ug/ml; format: functional
Staphylococcus aureus [4] = experiment: Antibacterial activity against Staphylococcus aureus ATCC 35556 assessed as planktonic growth at 50 ug/ml; format: organism-based
[5] = test system: Staphylococcus epidermidis; experiment: Antibacterial activity against Staphylococcus epidermidis GTC 18972 assessed as planktonic growth at 50 ug/ml; format: organism-based
Staphylococcus aureus [6] = experiment: Antibacterial activity against methicillin-resistant Staphylococcus aureus assessed as planktonic growth at 50 ug/ml; format: organism-based; conditions: in vitro
Staphylococcus aureus [7] = experiment: Antibiofilm activity against methicillin-resistant Staphylococcus aureus assessed as inhibition of biofilm formation at 50 ug/ml; format: functional
Pseudomonas aeruginosa [8] = experiment: Antibiofilm activity against Pseudomonas aeruginosa PAO1 assessed as inhibition of biofilm formation; format: functional, organism-based
[9] = test system: Staphylococcus epidermidis; experiment: Antibiofilm activity against Staphylococcus epidermidis GTC 18972 assessed as inhibition of biofilm formation at 50 ug/ml; format: functional
Pseudomonas aeruginosa [10] = experiment: Antibacterial activity against Pseudomonas aeruginosa PAO1 assessed as planktonic growth at 50 ug/ml; format: organism-based
[11] = test system: Staphylococcus epidermidis; experiment: Antibacterial activity against Staphylococcus epidermidis 1457 assessed as planktonic growth at 50 ug/ml; format: organism-based
Staphylococcus aureus [12] = experiment: Antibacterial activity against methicillin-resistant Staphylococcus aureus 1094 assessed as planktonic growth at 50 ug/ml; format: organism-based
Staphylococcus aureus [13] = experiment: Antibiofilm activity against methicillin-resistant Staphylococcus aureus 1094 assessed as inhibition of biofilm formation at 50 ug/ml; format: functional
[14] = test system: Staphylococcus epidermidis; experiment: Antibiofilm activity against Staphylococcus epidermidis GTC 18972 assessed as inhibition of biofilm formation; format: functional
Staphylococcus aureus [15] = experiment: Antibacterial activity against Staphylococcus aureus ATCC 35556 assessed as planktonic growth; format: organism-based
[16] = Cytotoxicity against human HeLa cells; format: cell-based
Pseudomonas aeruginosa [17] = experiment: Antibacterial activity against Pseudomonas aeruginosa PAO1 assessed as planktonic growth; format: organism-based
[18] = test system: Staphylococcus epidermidis; experiment: Antibacterial activity against Staphylococcus epidermidis 1457 assessed as planktonic growth; format: organism-based
[19] = test system: Staphylococcus epidermidis; experiment: Antibacterial activity against Staphylococcus epidermidis GTC 18972 assessed as planktonic growth; format: organism-based
Staphylococcus aureus [20] = experiment: Antibiofilm activity against Staphylococcus aureus ATCC 35556 assessed as inhibition of biofilm formation; format: functional
[21] = test system: Staphylococcus epidermidis; experiment: Antibiofilm activity against Staphylococcus epidermidis 1457 assessed as inhibition of biofilm formation; format: functional
Staphylococcus aureus [22] = experiment: Antibiofilm activity against methicillin-resistant Staphylococcus aureus 1094 assessed as inhibition of biofilm formation; format: functional
Staphylococcus aureus [23] = experiment: Antibiofilm activity against Staphylococcus aureus assessed as inhibition of biofilm formation; format: functional, organism-based

Row | Compound | inhibition at 50 µg/mL [1] | inhibition at 50 µg/mL (Staphylococcus aureus [2]) | inhibition at 50 µg/mL (Pseudomonas aeruginosa [3]) | Activity (Staphylococcus aureus [4]) | Activity [5] | Activity (Staphylococcus aureus [6]) | inhibition at 50 µg/mL (Staphylococcus aureus [7]) | inhibition at 50 µg/mL [9] | Activity (Pseudomonas aeruginosa [10]) | Activity [11] | Activity (Staphylococcus aureus [12]) | inhibition at 50 µg/mL (Staphylococcus aureus [13]) | MBIC [14] | MIC (Staphylococcus aureus [15]) | CC50 [16] | MBIC (Pseudomonas aeruginosa [8]) | MIC (Pseudomonas aeruginosa [17]) | MIC [18] | MIC [19] | MBIC (Staphylococcus aureus [20]) | other results
1 | Nc1nc(C(=O)CCNC(=O)c2cc(Br)c(Br)[nH]2)c[nH]1 | 17.8% | -0.94% | 4.13% | -4.22% | 9.62% | 1.56% | 28.3% | 33.8% | 6.46% | -13.68% | 21.91% | -66% | – | – | – | – | – | – | – | – | IC50 (Pseudomonas aeruginosa [8]; Pseudomonas aeruginosa, PAO1): 60 µM
2 | O=C(CN1C(=O)c2ccccc2C1=O)c1cnc2ncccn12 | 6.4% | -3.15% | -7.64% | -6.07% | 29.67% | 3.76% | -97.9% | 8.1% | -0.69% | 11.1% | 21.51% | -67.5% | – | – | – | – | – | – | – | – | –
3 | O=C(CCN1C(=O)c2ccccc2C1=O)c1cnc2ncccn12 | 10.6% | 6.92% | 23% | 2.31% | 23.58% | 10.43% | 18.7% | -11% | -16.12% | 15.13% | 15.94% | -53.2% | – | – | – | – | – | – | – | – | –
4 | Nc1ncc(C(=O)CCNC(=O)c2cc(Br)c[nH]2)[nH]1 | 98% | 98% | 29.6% | 81.24% | 86.77% | 88.41% | 88.8% | 97.8% | 32.69% | 85.98% | 88.88% | 85.5% | 25 µg/mL | 50 µg/mL (≈ 153 µM) | 86.4 µg/mL (≈ 265 µM) | >=100 ug ml-1 | >= 100 ug ml-1 | 50 µg/mL (≈ 153 µM) | 25 µg/mL (≈ 76.7 µM) | 50 µg/mL | MBIC [21]: 25 µg/mL
5 | Nc1ncc(C(=O)CCNC(=O)c2ccc[nH]2)[nH]1 | 98% | 98.1% | 92% | 79.94% | 81.99% | 85.37% | 88.4% | 97.8% | 86.17% | 81.58% | 86.98% | 86.2% | 6.25 µg/mL | 25 µg/mL (≈ 101 µM) | 101 µg/mL (≈ 410 µM) | 50 µg/mL | 50 µg/mL (≈ 202 µM) | 12.5 µg/mL (≈ 50.6 µM) | 12.5 µg/mL (≈ 50.6 µM) | 6.25 µg/mL | MBIC (Staphylococcus aureus [22]): 12.5 µg/mL; MBIC [21]: 6.25 µg/mL
6 | Nc1ncc(/C=C/CNC(=O)c2cc(Br)c(Br)[nH]2)[nH]1 [OROIDIN] | – | – | – | – | – | – | – | – | – | – | – | – | – | – | – | – | – | – | – | – | IC50 (Staphylococcus aureus [23]): 166 µM
